Experimental data as given in the NIST ThermoML archive (doi:10.1016/j.jct.2011.02.018).

Assay: xn = mol fraction of the nth substance listed
Details: 101 kPa, Liquid; for viscosity: Concentric cylinders viscometry; for mass density: Vibrating tube method

COC(C)(C)C [2-methoxy-2-methylpropane] + CCO
Details | mass density, 293.15 K [kg/m3] | mass density, 298.15 K [kg/m3] | mass density, 303.15 K [kg/m3] | mass density, 308.15 K [kg/m3] | viscosity, 293.15 K [mPa·s] | viscosity, 298.15 K [mPa·s] | viscosity, 303.15 K [mPa·s] | viscosity, 308.15 K [mPa·s]
x1 = 0.0097 | 789.03 | 784.78 | 780.44 | 776.08 | 1.174 | 1.067 | 0.9713 | 0.884
x1 = 0.0198 | 788.28 | 783.99 | 779.64 | 775.26 | 1.146 | 1.043 | 0.9506 | 0.8659
x1 = 0.0301 | 787.54 | 783.23 | 778.87 | 774.47 | 1.118 | 1.027 | 0.9348 | 0.8484
x1 = 0.0402 | 786.85 | 782.54 | 778.16 | 773.74 | 1.092 | 0.9956 | 0.9088 | 0.8298
x1 = 0.0502 | 786.37 | 782.01 | 777.63 | 773.2 | 1.073 | 0.9782 | 0.893 | 0.8165
x1 = 0.0583 | 785.66 | 781.32 | 776.91 | 772.46 | 1.049 | 0.9582 | 0.8745 | 0.7986
x1 = 0.07 | 784.87 | 780.51 | 776.08 | 771.61 | 1.023 | 0.9337 | 0.854 | 0.7813
x1 = 0.0801 | 784.2 | 779.82 | 775.37 | 770.89 | 1 | 0.9146 | 0.8364 | 0.7634
x1 = 0.0861 | 783.96 | 779.52 | 775.09 | 770.6 | 0.9912 | 0.9061 | 0.8291 | 0.7578
x1 = 0.1009 | 782.99 | 778.56 | 774.11 | 769.6 | 0.9622 | 0.8805 | 0.806 | 0.7369
x1 = 0.154 | 779.59 | 775.08 | 770.56 | 765.97 | 0.8624 | 0.792 | 0.7283 | 0.6689
x1 = 0.2006 | 776.77 | 772.21 | 767.62 | 762.96 | 0.7889 | 0.7263 | 0.6694 | 0.6147
x1 = 0.2471 | 774.06 | 769.46 | 764.79 | 760.08 | 0.7261 | 0.6707 | 0.6185 | 0.5661
x1 = 0.2975 | 771.22 | 766.56 | 761.83 | 757.06 | 0.6675 | 0.6182 | 0.5731 | 0.5259
x1 = 0.3487 | 768.46 | 763.75 | 758.96 | 754.12 | 0.6166 | 0.5722 | 0.5309 | 0.4855
x1 = 0.3976 | 765.94 | 761.16 | 756.32 | 751.43 | 0.5761 | 0.5357 | 0.4954 | 0.4552
x1 = 0.4532 | 763.17 | 758.36 | 753.45 | 748.5 | 0.5354 | 0.4987 | 0.4638 | 0.4257
x1 = 0.5007 | 760.96 | 756.08 | 751.15 | 746.15 | 0.5062 | 0.4708 | 0.4353 | 0.3994
x1 = 0.5505 | 758.76 | 753.83 | 748.85 | 743.8 | 0.4798 | 0.4482 | 0.4155 | 0.379
x1 = 0.5998 | 756.62 | 751.67 | 746.63 | 741.53 | 0.4564 | 0.426 | 0.3967 | 0.363
x1 = 0.6484 | 754.48 | 749.51 | 744.43 | 739.29 | 0.4361 | 0.4083 | 0.3808 | 0.3487
x1 = 0.6995 | 752.35 | 747.32 | 742.19 | 737 | 0.4156 | 0.39 | 0.3632 | 0.3313
x1 = 0.749 | 750.35 | 745.3 | 740.14 | 734.91 | 0.3998 | 0.3751 | 0.3459 | 0.3273
x1 = 0.7995 | 748.36 | 743.27 | 738.06 | 732.8 | 0.3844 | 0.3616 | 0.3381 | 0.3084
x1 = 0.8496 | 746.44 | 741.31 | 736.08 | 730.78 | 0.3715 | 0.3488 | 0.3271 | 0.3025
x1 = 0.9009 | 744.51 | 739.34 | 734.07 | 728.75 | 0.3589 | 0.3384 | 0.3159 | 0.2963
x1 = 0.9093 | 744.2 | 739.04 | 733.77 | 728.45 | 0.3573 | 0.3382 | 0.3136 | 0.2948
x1 = 0.9166 | 743.9 | 738.72 | 733.47 | 728.14 | 0.3534 | 0.3338 | 0.3143 | 0.2965
x1 = 0.9299 | 743.35 | 738.18 | 732.9 | 727.57 | 0.352 | 0.3326 | 0.3136 | 0.2908
x1 = 0.9398 | 742.96 | 737.79 | 732.51 | 727.17 | 0.35 | 0.3294 | 0.3107 | 0.2884
x1 = 0.9501 | 742.54 | 737.38 | 732.09 | 726.76 | 0.348 | 0.3264 | 0.3068 | 0.2842
x1 = 0.9597 | 742.15 | 736.97 | 731.71 | 726.36 | 0.3458 | 0.3256 | 0.3066 | 0.2829
x1 = 0.968 | 741.84 | 736.66 | 731.37 | 726.03 | 0.3444 | 0.3247 | 0.3062 | 0.282
x1 = 0.9802 | 741.35 | 736.15 | 730.87 | 725.52 | 0.3418 | 0.3226 | 0.304 | 0.2809
x1 = 0.9868 | 741.1 | 735.92 | 730.61 | 725.26 | 0.3421 | 0.3209 | 0.3005 | 0.2794
